From patent publication US20140249165A1, “PURINE DERIVATIVES FOR TREATMENT OF CYSTIC DISEASES” (Genzyme Corporation, priority 2006, published 2014) come the findings set out here.

For one data set, the system named is MDCK cysts. Conditions: read-out: IC50 of inhibition of cystic growth; MDCK cysts in 3D collagen I gel, 96 hours incubation, Alamar Blue. (Alamar Blue is a resazurin reagent that responds to reducing activity.)
The test system of the next data set is jck kidney. The data set can be described thus: PCNA and TUNEL staining of jck kidney sections. The format is in vivo, mouse. Conditions: Roscovitine treated jck kidney.
Data set [1] concerns cystic kidneys (cell cycle and transcription proteins). The data set can be described thus: Western blot analysis of cystic kidney protein extracts. The format is in vivo, mouse. Conditions: cystic kidneys of treated mice. The procedure: Kidneys were homogenized in RIPA buffer (10 mM HEPES, pH 8.0, 100 mM NaCl, 1% Triton X-100, 0.1% SDS, 0.5% sodium deoxycholate, 1 mM DTT, 1 mM EDTA, 1 mM NaF, 1 mM Na3VO4) with Complete™ protease inhibitor cocktail (Roche Diagnostic GmbH, Mannheim, Germany). 30 μg of protein samples were separated in 4-12% SDS/acrylamide gels (Invitrogen, Carlsbad, Calif.). Gels were soaked in transfer buffer (192 mM glycine, 25 mM Tris, 10% methanol, pH 8.3) and transferred to Immobilone-P membranes (Millipore Corporation, Bedford, Mass.). Membranes were rehydrated with methanol and incubated in blocking buffer (5% powdered milk or 3% BSA in PBS) for 30 min. Membranes were incubated overnight at 4° C. with primary antibodies against RNApolII-p, p35/p25 (Abcam, Cambridge, Mass.); Rb-p, cycD1, cycD1-p, ERK2, ERK1/2-p (Cell Signaling, Danvers, Mass.); Rb2, RBBP, cycD3, caspase-2, caspase-3, ApaF1, Bcl-2, Bcl-XL, BAD (BD Biosciences, San Jose, Calif.); CDK7, CDK9, PCNA, GAPDH (US Biologicals, Swampscott, Mass.); cycD2 (BioSource International, Camarillo, Calif.), washed in TBST and incubated with HRP-labeled secondary antibodies as recommended by the manufacturer Immunoreactive proteins were detected using enhanced chemi-luminescence (Amersham Pharmacia Biotech, Little Chalfont Buckinghamshire, England).
A general note: In western blotting, separated proteins are transferred to a membrane and probed.

The subject of a further data set is cpk model of PKD. Conditions: cpk mice, 100 mg/kg IP daily, day 7 till day 21.
The mark [2] stands for this setting: jck female, 150 mg/kg IP daily, continuous 5 W.
[3] abbreviates: jck male, 50 mg/kg IP daily, continuous 5 W.
Where [4] appears, read: jck male, 150 mg/kg IP daily, continuous 5 W (Table 2).
Setting [5] is: jck male, 150 mg/kg, daily dosing for 5 weeks (Table 2a).
Where [6] appears, read: jck male, 150 mg/kg, pulse treatment 5 W (1/1): 1 week on, 1 week off for 5 weeks.
Where [7] appears, read: jck male, 150 mg/kg, pulse treatment 5 W (3/2): 3 weeks on, 2 weeks off.

Where two headings read alike, the source gives them in different places.

Turning to `CC[C@H](CO)Nc1nc(N(C)Cc2ccccc2)c2ncn(C(C)C)c2n1`, the half-inhibitory concentration (IC50) in the data set with MDCK cysts worked out at 190 µM.

For the compound `CC[C@H](CO)Nc1nc(NCc2ccccc2)c2ncn(C(C)C)c2n1` [Roscovitine, 6-benzylamino-2-(R)-[(1-ethyl-2-hydroxy)ethylamino]-9-isopropylpurine], the BUN with jck mouse model of PKD (setting [2]) worked out at 31.09 ± 6.12 mg/dL; in the data set on jck mouse model of PKD (setting [3]) it was 51.25 ± 10.19 mg/dL; in the data set on jck mouse model of PKD (setting [4]), 26.78 ± 3.31 mg/dL; with jck mouse model of PKD (setting [5]) it was 28.89 ± 7.51 mg/dL; in the data set with jck mouse model of PKD (setting [6]), 43.90 ± 13.08 mg/dL; in the data set with jck mouse model of PKD (setting [7]), 27.60 ± 4.32 mg/dL. In addition, the “BUN” value with jck mouse model of PKD (jck mice, 50 mg/kg) was “reduced”; with jck mouse model of PKD (jck mice, 150 mg/kg), “normalized”; in the data set on cpk model of PKD it was 54.58 ± 9.60 mg/dL. Moreover, the Body weight came out at 19.79 ± 0.80 g with jck mouse model of PKD (setting [2]); 20.54 ± 1.66 g in the data set with jck mouse model of PKD (setting [3]); 21.52 ± 1.78 g in the data set with jck mouse model of PKD (setting [4]); 22.33 ± 1.05 g in the data set on jck mouse model of PKD (setting [5]); 22.14 ± 1.10 g with jck mouse model of PKD (setting [6]); 22.77 ± 0.39 g in the data set with jck mouse model of PKD (setting [7]). For the same compound, the Body weight with cpk model of PKD is on record as 9.75 ± 1.00 g. Besides, the Cystic volume came out at 0.74 ± 0.24 % BW in the data set on jck mouse model of PKD (setting [2]); 2.25 ± 0.66 % BW in the data set with jck mouse model of PKD (setting [3]); 0.98 ± 0.15 % BW in the data set with jck mouse model of PKD (setting [4]); 1.10 ± 0.41 % BW in the data set on jck mouse model of PKD (setting [5]); 1.28 ± 0.22 % BW with jck mouse model of PKD (setting [6]); 1.29 ± 0.40 % BW in the data set on jck mouse model of PKD (setting [7]). Moreover, the Cystic volume with cpk model of PKD amounted to 14.62 ± 2.16 % BW. Further, the “Tolerability (weight loss, mortality, toxicity)” value with jck mouse model of PKD (jck mice, 50 or 150 mg/kg IP) was “well tolerated with no weight loss, mortality or toxicity”. Moreover, the “Cystogenesis with intermittent dosing” value with jck mouse model of PKD (jck mice, daily for one week followed by one week off, total of 5 weeks) is reported as “reduction of cystogenesis was detected”. In the data set on jck mouse model of PKD (jck/jck males, 150 mg/kg daily for 3 weeks, followed by 2 weeks without treatment), the “Anti-cystic effect after drug withdrawal” value is recorded as “long lasting anti-cystic effect was detected with normalized levels of BUN”. The PCNA-positive cells result with jck kidney (PCNA immunostaining) is “quantitative reduction in PCNA-positive cells”. For the same compound, the TUNEL-positive cells result in the data set with jck kidney (TUNEL staining) was “reduced the number of TUNEL-positive cells”. Besides, in data set [1], the “Cyclin D2 and D3 expression” value is listed as “downregulated”. Also, the “Level of ERK 1/2 activation” value in data set [1] is given as “decreasing the level of ERK 1/2 activation”. For the same compound, in data set [1], the “Levels of Rb associated proteins Rb2 and RBB2” value is recorded as “normalized”. Besides, in data set [1], the “Phosphorylation level of cyclin D1 (Thr-286)” value is “normalized phosphorylation level of cyclin D1”. Besides, the Rb phosphorylation entry in data set [1] was “dephosphorylation of Rb3”. Besides, in data set [1] (vs WT controls), the “RNA pol II phosphorylation” value is recorded as “reduced levels of RNA pol II phosphorylation”. In addition, the Creatinine in the data set on cpk model of PKD is given as 0.29 ± 0.07 mg/dL.

The term IC50 denotes the concentration that gives 50% inhibition.
